In patent publication US20090048301A1 (IMCLONE SYSTEMS INCORPORATED, priority 2003, published 2009):
Like-named read-outs stand apart in the source and are kept apart here.

Key:
[1] = tested on: A431, human epidermoid carcinoma cells; assay: Cell cycle analysis (FACS), mitotic arrest in G2/M; format: cell-based; conditions: read-out: FACS Assay: concentration required to achieve inhibition in FACS assay
Description: The cell cycle analysis was performed as follows. Cancer cells (A431, human epidennoid carcinoma cells) were maintained in culture in D-MEM media with 10% FBS and 1 mg/ml glutamate. Prior to experiment, cells were plated onto 6-well plates for a final density of 500,000 cells/well at the time of treatment. Cells were treated with the compounds of the invention at a concentration of about 0.01 to 1 μM final concentrations (final 0.1% DMSO) for 24 hours, then trypsinized, collected, rinsed in PBS (phosphate buffered saline), and fixed in 70% cold ethanol overnight at 4° C. The cells were then rinsed with PBS, resuspended in PBS with 0.2% Tween, RNAse was added (final 1 μg/ml), cells were incubated at 37° C. for 15 min, followed by addition of Propidium Iodide (final 50 μg/ml), and a 30 minute incubation at room temperature. DNA ploidy was analyzed using flow cytometers (Epics Excel, Beckman-Coulter, or Guava PCA-96, Guava Technologies) and mitotic arrest characterized by massive accumulation of cells in the G2/M phase of cell cycle.
Cancer cells (A431, human epidermoid cells) were maintained in culture in D-MEM media with 10% FBS and 1 mg/ml glutamate. Prior to experiment, cells are plated onto 6-well plates for a final density of 500,000 cells/well at the time of treatment. Cells were treated with compounds at 0.01-1 μM final concentrations (final […] DMS 0) for 24 hours, then trypsinized, collected, rinsed in PBS (phosphate buffered saline), and fixed in 70% cold ethanol overnight at 4° C. Cells were then rinsed with PBS, resuspended in PBS with 0.2% Tween, RNAse was added (final 1 μg/ml), cells were incubated at 37° C. for 15 min, followed by addition of Propidium Iodide (final 50 μg/ml), and a 30 minute incubation at room temperature. DNA ploidy was analyzed using cell sorters (Epics Excel, Beckman-Coulter, or Guava PCA-96, Guava Technologies) and mitotic arrest characterized by massive accumulation of cells in the G2/M phase of cell cycle.

[2] = tested on: bovine tubulin; assay: In vitro tubulin polymerization assay (turbidity at 340 nm); format: biochemical; conditions: 10 μM compound, 30 minute data point, vs 1% DMSO control
Summary of the method: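 Bovine tubulin (97%, <3% MAPs) at 3 mg/ml final in G-PEM pH 7 with 1 mM GTP and 5% glycerol, added cold to compound wells at 37° C (1% DMSO final). A340 read each minute for 30 min; percent inhibition from 30-min point versus DMSO control.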

| Compound | minimal effective concentration ([1]; Homo sapiens, A-431, 24 h) | Tubulin Assay: percent inhibition at 10 μM based on 30 minute data [2] | minimal effective concentration ([1]; 24 hours) |
| --- | --- | --- | --- |
| c1cnc(NCc2ccc3c(c2)OCCO3)c(-c2nnc(Nc3ccc4c(c3)OCO4)o2)c1 [Compound 196, {3-[5-(Benzo[1,3]dioxol-5-ylamino)-[1,3,4]oxadiazol-2-yl]-pyridin-2-yl}-(2,3-dihydro-benzo[1,4]dioxin-6-ylmethyl)-amine] | 1 µM | 93% |  |
| Fc1ccc(CNc2ncccc2-c2nnc(-c3ccc4c(c3)OCO4)[nH]2)cc1F [Compound 101, [3-(5-Benzo[1,3]dioxol-5-yl-4H-[1,2,4]triazol-3-yl)-pyridin-2-yl]-(3,4-difluoro-benzyl)-amine] | 1 µM | 66% |  |
| c1coc(CNc2ncccc2-c2nnc(Nc3ccc4c(c3)OCO4)[nH]2)c1 [Compound 40, {3-[5-(Benzo[1,3]dioxol-5-ylamino)-4H-[1,2,4]triazol-3-yl]-pyridin-2-yl}-furan-2-ylmethyl-amine] | 1 µM | 71% |  |
| c1ccc(-c2nnc(Nc3ccc4c(c3)OCO4)[nH]2)c(NCc2ccc3[nH]ncc3c2)c1 [Compound 119, Benzo[1,3]dioxol-5-yl-(5-{2-[(1H-indazol-5-ylmethyl)-amino]-phenyl}-4H-[1,2,4]triazol-3-yl)-amine] | 1 µM | 76% |  |
| c1ccc(-c2nnc(Nc3ccc4c(c3)OCCO4)o2)c(NCc2ccc3c(c2)OCO3)c1 [Compound 218, (5-{2-[(Benzo[1,3]dioxol-5-ylmethyl)-amino]-phenyl}-[1,3,4]oxadiazol-2-yl)-(2,3-dihydro-benzo[1,4]dioxin-6-yl)-amine] | 0.1 µM | 74% |  |
| c1coc(CNc2ncccc2-c2nnc(Nc3ccc4c(c3)OCO4)o2)c1 [Compound 163, {3-[5-(Benzo[1,3]dioxol-5-ylamino)-[1,3,4]oxadiazol-2-yl]-pyridin-2-yl}-furan-2-ylmethyl-amine] | 1 µM | 90% |  |
| Fc1ccc(CNc2ncccc2-c2nnc(Nc3ccc4c(c3)OCO4)o2)cc1F [Compound 155, {3-[5-(Benzo[1,3]dioxol-5-ylamino)-[1,3,4]oxadiazol-2-yl]-pyridin-2-yl}-(3,4-difluoro-benzyl)-amine] | 1 µM | 91% |  |
| c1ccc(-c2nnc(Nc3ccc4c(c3)OCO4)o2)c(NCc2cn[nH]c2)c1 [Compound 224, Benzo[1,3]dioxol-5-yl-(5-{2-[(1H-pyrazol-4-ylmethyl)-amino]-phenyl}-[1,3,4]oxadiazol-2-yl)-amine] | 1 µM | 81% |  |
| COc1cc(Nc2ncccc2-c2nnc(-c3ccc(S(C)(=O)=O)cc3)[nH]2)cc(OC)c1 [Compound 74, (3,5-Dimethoxy-phenyl)-{3-[5-(4-methanesulfonyl-phenyl)-4H-[1,2,4]triazol-3-yl]-pyridin-2-yl}-amine] | 0.1 µM | 87% |  |
| CS(=O)(=O)c1ccc(-c2nnc(-c3cccnc3NCc3ccc4c(c3)CCO4)[nH]2)cc1 [Compound 97, (2,3-Dihydro-benzofuran-5-ylmethyl)-{3-[5-(4-methanesulfonyl-phenyl)-4H-[1,2,4]triazol-3-yl]-pyridin-2-yl}-amine] | 1 µM | 77% |  |
| c1ccc(-c2cnc(Nc3ccc4c(c3)OCCO4)o2)c(NCc2ccc3c(c2)OCO3)c1 [Compound 244, (5-{2-[(Benzo[1,3]dioxol-5-ylmethyl)-amino]-phenyl}-oxazol-2-yl)-(2,3-dihydro-benzo[1,4]dioxin-6-yl)-amine] | 1 µM | 96% |  |
| CS(=O)(=O)c1ccc(-c2nnc(-c3cccnc3NCc3ccc(F)cc3)[nH]2)cc1 [Compound 108, (4-Fluoro-benzyl)-{3-[5-(4-methanesulfonyl-phenyl)-4H-[1,2,4]triazol-3-yl]-pyridin-2-yl}-amine] | 0.1 µM | 91% |  |
| c1cnc(Nc2ccc3c(c2)OCO3)c(-c2nnc(Nc3ccc4c(c3)OCO4)[nH]2)c1 [Compound 32, Benzo[1,3]dioxol-5-yl-{3-[5-(benzo[1,3]dioxol-5-ylamino)-4H-[1,2,4]triazol-3-yl]-pyridin-2-yl}-amine] | 10 µM | 54% |  |
| COc1cccc(-c2nnc(-c3ccccc3NCc3ccc4[nH]ncc4c3)[nH]2)c1 [Compound 136, (1H-Indazol-5-ylmethyl)-{2-[5-(3-methoxy-phenyl)-4H-[1,2,4]triazol-3-yl]-phenyl}-amine] | 10 µM | 32% |  |
| COc1ccc(CNc2ncccc2-c2nnc(Nc3ccc4c(c3)OCCO4)[nH]2)cc1 [Compound 51, {3-[5-(2,3-Dihydro-benzo[1,4]dioxin-6-ylamino)-4H-[1,2,4]triazol-3-yl]-pyridin-2-yl}-(4-methoxy-benzyl)-amine] | 1 µM | 68% |  |
| c1cnc(NCC2CCCO2)c(-c2nnc(Nc3ccc4c(c3)OCCO4)o2)c1 (stereo not drawn) [Compound 175, {3-[5-(2,3-Dihydro-benzo[1,4]dioxin-6-ylamino)-[1,3,4]oxadiazol-2-yl]-pyridin-2-yl}-(tetrahydro-furan-2-ylmethyl)-amine] | 0.1 µM | 90% |  |
| CS(=O)(=O)c1ccc(-c2nnc(-c3cccnc3NCC3CCCO3)[nH]2)cc1 (stereo not drawn) [Compound 106, {3-[5-(4-Methanesulfonyl-phenyl)-4H-[1,2,4]triazol-3-yl]-pyridin-2-yl}-(tetrahydro-furan-2-ylmethyl)-amine] | 0.1 µM | 79% |  |
| c1coc(CNc2ncccc2-c2nnc(Nc3ccc4c(c3)OCCO4)o2)c1 [Compound 164, {3-[5-(2,3-Dihydro-benzo[1,4]dioxin-6-ylamino)-[1,3,4]oxadiazol-2-yl]-pyridin-2-yl}-furan-2-ylmethyl-amine] |  | 73% | 0.1 µM |
| COc1cc(Nc2nnc(-c3cccnc3NCc3ccco3)o2)cc(OC)c1OC [Compound 197, Furan-2-ylmethyl-{3-[5-(3,4,5-H trimethoxy-phenylamino)-[1,3,4]oxadiazol-2-yl]-pyridin-2-yl}-amine] | 1 µM | 66% |  |
| COc1cccc(-c2nnc(-c3cccnc3NCc3ccc(F)c(F)c3)[nH]2)c1 [Compound 100, (3,4-Difluoro-benzyl)-{3-[5-(3-methoxy-phenyl)-4H-[1,2,4]triazol-3-yl]-pyridin-2-yl}-amine] | 10 µM | 70% |  |
| COc1ccc(CNc2ncccc2-c2nnc(Nc3ccc4c(c3)OCCO4)o2)cc1OC [Compound 165, {3-[5-(2,3-Dihydro-benzo[1,4]dioxin-6-ylamino)-[1,3,4]oxadiazol-2-yl]-pyridin-2-yl}-(3,4-dimethoxy-benzyl)-amine] | 0.1 µM | 86% |  |
| c1cnc(NCc2ccc3c(c2)OCO3)c(-c2nnc(Nc3ccc4c(c3)OCCO4)o2)c1 [Compound 195, Benzo[1,3]dioxol-5-ylmethyl-{3-[5-(2,3-dihydro-benzo[1,4]dioxin-6-ylamino)-[1,3,4]oxadiazol-2-yl]-pyridin-2-yl}-amine] | 0.01 µM | 73% |  |
| c1cnc(NCC2COCCO2)c(-c2nnc(Nc3ccc4c(c3)OCO4)o2)c1 (stereo not drawn) [Compound 202, {3-[5-(Benzo[1,3]dioxol-5-ylamino)-[1,3,4]oxadiazol-2-yl]-pyridin-2-yl}-[1,4]dioxan-2-ylmethyl-amine] | 0.1 µM | 89% |  |
| COc1cccc(-c2nnc(-c3ccccc3NCc3ccc4c(c3)OCO4)[nH]2)c1 [Compound 148, Benzo[1,3]dioxol-5-ylmethyl-{2-[5-(3-methoxy-phenyl)-4H-[1,2,4]triazol-3-yl]-phenyl}-amine] | 10 µM | 71% |  |
